Measured values taken from ChEMBL document CHEMBL4033647, “Novel coumarin- and quinolinone-based polycycles as cell division cycle 25-A and -C phosphatases inhibitors induce proliferation arrest and apoptosis in cancer cells” (Eur J Med Chem, 2017).
The source made the active and inactive calls. No cut-off for these calls is given here.

Key:
A-431 [1] = experiment: Cell cycle arrest in human A431 cells assessed as accumulation at G1 phase at 50 uM after 24 hrs by propidium iodide staining based flow cytometric analysis (reference value: 53.04%); type: functional
MCF7 = experiment: Cytotoxicity against human MCF7 cells assessed as reduction in cell viability after 72 hrs by MTT assay; type: functional, cell-based; settings: MCF7, 72 h
A-431 [2] = experiment: Effect on CDC25C splice variant protein expression in human A431 cell extract at 50 uM after 24 hrs by Western blot analysis; type: functional, cell-based
[3] = molecular target: T1, M-phase inducer phosphatase 3 (Homo sapiens) (UniProt P30307); settings: 10 to 50 uM
T1 sequence (whole entry): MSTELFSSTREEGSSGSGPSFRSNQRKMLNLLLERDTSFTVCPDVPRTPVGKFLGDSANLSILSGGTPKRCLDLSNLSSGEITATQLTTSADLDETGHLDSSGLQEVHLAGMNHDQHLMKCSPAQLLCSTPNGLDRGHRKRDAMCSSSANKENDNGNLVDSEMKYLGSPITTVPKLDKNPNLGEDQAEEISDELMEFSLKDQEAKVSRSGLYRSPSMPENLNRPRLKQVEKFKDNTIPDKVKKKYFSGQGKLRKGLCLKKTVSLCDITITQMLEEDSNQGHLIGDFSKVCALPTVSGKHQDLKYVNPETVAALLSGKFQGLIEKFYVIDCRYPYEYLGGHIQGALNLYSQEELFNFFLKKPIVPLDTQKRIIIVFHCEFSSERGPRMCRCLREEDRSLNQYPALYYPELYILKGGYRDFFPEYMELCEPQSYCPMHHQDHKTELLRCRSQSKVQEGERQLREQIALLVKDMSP
Description: Inhibition of CDC25C in human A431 cells assessed as increase in CDK-mediated phosphorylation of histone H3 at Ser10 residues at 10 to 50 uM after 24 hrs by Western blot analysis

A549 = experiment: Cytotoxicity against human A549 cells assessed as reduction in cell viability after 72 hrs by MTT assay; type: functional, cell-based; settings: A549, 72 h
A-431 [4] = experiment: Cell cycle arrest in human A431 cells assessed as accumulation at G2/M phase at 50 uM after 24 hrs by propidium iodide staining based flow cytometric analysis (reference value: 26.23%); type: functional
Hs 683 = experiment: Cytotoxicity against human Hs683 cells assessed as reduction in cell viability after 72 hrs by MTT assay; type: functional, cell-based; settings: Hs 683, 72 h
[5] = Cytotoxicity against human U373n cells assessed as reduction in cell viability after 72 hrs by MTT assay; type: functional, cell-based
A-431 [6] = experiment: Cell cycle arrest in human A431 cells assessed as accumulation at subG1 phase at 10 uM after 24 hrs by propidium iodide staining based flow cytometric analysis (reference value: 3.40%); type: functional
A-431 [7] = experiment: Cell cycle arrest in human A431 cells assessed as accumulation at G2/M phase at 10 uM after 24 hrs by propidium iodide staining based flow cytometric analysis (reference value: 26.23%); type: functional
A-431 [8] = experiment: Cytotoxicity against human A431 cells assessed as reduction in cell viability after 24 hrs by MTT assay; type: functional, cell-based; settings: A-431, 24 h
A-431 [9] = experiment: Induction of apoptosis in human A431 cells assessed as caspase-3 cleavage at 50 uM after 24 hrs by Western blot analysis; type: functional, cell-based
[10] = molecular target: T2, M-phase inducer phosphatase 3 (Homo sapiens, UniProt P30307); experiment: Inhibition of recombinant human full length GST-tagged CDC25C expressed in Escherichia coli BL21-DE3 pLysS using 3-O-methylfluorescein phosphate as substrate after 2 hrs by fluorimetric analysis
T2 sequence (P30307 whole entry): T1 sequence (whole entry)

A-431 [11] = experiment: Cell cycle arrest in human A431 cells assessed as accumulation at S phase at 50 uM after 24 hrs by propidium iodide staining based flow cytometric analysis (reference value: 17.33%); type: functional
A-431 [12] = experiment: Decrease in CDC25C protein expression level in human A431 cell extract at 50 uM after 24 hrs by Western blot analysis; type: functional, cell-based
SK-MEL-28 = experiment: Cytotoxicity against human SK-MEL-28 cells assessed as reduction in cell viability after 72 hrs by MTT assay; type: functional, cell-based; settings: SK-MEL-28, 72 h
[13] = molecular target: T1, M-phase inducer phosphatase 3 (Homo sapiens); experiment: Inhibition of CDC25C in human A431 cells assessed as increase in phosphorylation of CDK1 at Thr14/Tyr15 residues at 50 uM after 24 hrs by Western blot analysis; type: cell-based
PC-3 = experiment: Cytotoxicity against human PC3 cells assessed as reduction in cell viability after 72 hrs by MTT assay; type: functional, cell-based; settings: PC-3, 72 h
[14] = molecular target: T3, M-phase inducer phosphatase 2 (Homo sapiens, UniProt P30305); experiment: Inhibition of recombinant human GST-tagged truncated CDC25B expressed in bacterial expression system using 3-O-methylfluorescein phosphate as substrate after 2 hrs by fluorimetric analysis
T3 sequence (P30305 whole entry): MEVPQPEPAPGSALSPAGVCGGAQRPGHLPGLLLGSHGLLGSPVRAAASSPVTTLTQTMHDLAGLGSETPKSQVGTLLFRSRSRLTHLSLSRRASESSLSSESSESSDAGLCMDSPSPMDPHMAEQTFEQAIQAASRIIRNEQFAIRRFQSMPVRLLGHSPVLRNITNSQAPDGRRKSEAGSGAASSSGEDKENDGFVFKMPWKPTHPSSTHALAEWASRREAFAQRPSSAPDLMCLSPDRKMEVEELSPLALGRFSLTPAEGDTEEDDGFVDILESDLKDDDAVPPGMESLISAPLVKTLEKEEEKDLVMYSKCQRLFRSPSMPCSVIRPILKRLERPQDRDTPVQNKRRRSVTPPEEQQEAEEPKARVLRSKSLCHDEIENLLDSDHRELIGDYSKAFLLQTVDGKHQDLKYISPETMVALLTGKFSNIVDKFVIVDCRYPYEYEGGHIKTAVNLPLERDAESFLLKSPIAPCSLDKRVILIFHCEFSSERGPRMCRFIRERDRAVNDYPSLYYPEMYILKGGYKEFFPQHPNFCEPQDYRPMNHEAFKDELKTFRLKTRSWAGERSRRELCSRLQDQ

[15] = molecular target: T4, M-phase inducer phosphatase 1 (Homo sapiens, UniProt P30304); experiment: Inhibition of recombinant human full length GST-tagged CDC25A expressed in Escherichia coli BL21-DE3 pLysS using 3-O-methylfluorescein phosphate as substrate after 2 hrs by fluorimetric analysis
T4 sequence (P30304 whole entry): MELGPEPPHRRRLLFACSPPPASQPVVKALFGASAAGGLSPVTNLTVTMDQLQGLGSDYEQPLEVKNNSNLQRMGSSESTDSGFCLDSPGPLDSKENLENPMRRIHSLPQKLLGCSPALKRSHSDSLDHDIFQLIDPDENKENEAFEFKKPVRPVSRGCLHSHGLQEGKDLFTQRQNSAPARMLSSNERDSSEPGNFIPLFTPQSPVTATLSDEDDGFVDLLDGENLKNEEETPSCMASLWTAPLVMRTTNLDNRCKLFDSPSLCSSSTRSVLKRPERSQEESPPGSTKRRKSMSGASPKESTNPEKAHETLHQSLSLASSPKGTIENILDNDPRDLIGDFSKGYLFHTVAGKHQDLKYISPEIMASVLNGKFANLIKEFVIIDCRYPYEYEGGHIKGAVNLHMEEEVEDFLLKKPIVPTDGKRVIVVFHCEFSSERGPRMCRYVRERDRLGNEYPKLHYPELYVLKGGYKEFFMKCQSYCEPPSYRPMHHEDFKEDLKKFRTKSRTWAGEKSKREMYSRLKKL

A-431 [16] = experiment: Cell cycle arrest in human A431 cells assessed as accumulation at G1 phase at 10 uM after 24 hrs by propidium iodide staining based flow cytometric analysis (reference value: 53.04%); type: functional
A-431 [17] = experiment: Cell cycle arrest in human A431 cells assessed as accumulation at subG1 phase at 50 uM after 24 hrs by propidium iodide staining based flow cytometric analysis (reference value: 3.40%); type: functional
A-431 [18] = experiment: Cell cycle arrest in human A431 cells assessed as accumulation at S phase at 10 uM after 24 hrs by propidium iodide staining based flow cytometric analysis (reference value: 17.33%); type: functional
[19] = molecular target: T1, M-phase inducer phosphatase 3 (Homo sapiens); experiment: Inhibition of CDC25C in human A431 cells assessed as decrease in CDK-mediated phosphorylation of histone H3 at Ser10 residues at 50 uM after 24 hrs by Western blot analysis; type: cell-based
A-431 [20] = experiment: Induction of apoptosis in human A431 cells assessed as caspase-3 cleavage at 10 uM after 24 hrs by Western blot analysis; type: functional, cell-based
A-431 [21] = experiment: Cell cycle arrest in human A431 cells after 24 hrs by propidium iodide staining based flow cytometric analysis; type: functional
A-431 [22] = experiment: Cytotoxicity against human A431 cells assessed as cell viability at 10 uM after 48 hrs by MTT assay; type: functional; settings: A-431, 48 h, read-out: Activity
A-431 [23] = experiment: Growth inhibition of human A431 cells at 10 uM by trypan blue dye based assay; type: functional, cell-based; settings: TDE = time-dependent effect
A-431 [24] = experiment: Cytotoxicity against human A431 cells assessed as reduction in cell viability at 10 uM after 24 hrs by MTT assay; type: functional
[25] = Potency index, ratio of NSC95397 IC50 to compound IC50 against human U373n cells; type: functional
[26] = molecular target: T1, M-phase inducer phosphatase 3 (Homo sapiens); experiment: Inhibition of CDC25C in human A431 cells assessed as increase in CDK-mediated phosphorylation of histone H3 at Ser10 residues at 10 uM after 24 hrs by Western blot analysis; type: cell-based
A-431 [27] = experiment: Induction of apoptosis in human A431 cells assessed as PARP cleavage at 10 uM after 24 hrs by Western blot analysis; type: functional, cell-based

Q: For `O=C1C=CC(=O)c2c1ccc1c2c(=O)oc2ccccc21`, which Activity (A-431 [1]) is on record?
A: 42.38%

Q: And the IC50 (MCF7)?
A: 16 µM

Q: What about the Activity (A-431 [2]) of the same compound?
A: Active

Q: And the inhibition [3]?
A: Active

Q: What about the IC50 (A549) of the same compound?
A: 26 µM

Q: And the Activity (A-431 [4])?
A: 29.72%

Q: And the IC50 (Hs 683)?
A: 20 µM

Q: What about the IC50 [5] of the same compound?
A: 18 µM

Q: What about the Activity (A-431 [6]) of the same compound?
A: 6.85%

Q: What about the Activity (A-431 [7]) of the same compound?
A: 29.39%

Q: And the IC50 (A-431 [8])?
A: 16 µM

Q: What about the Activity (A-431 [9]) of the same compound?
A: Active

Q: And the IC50 [10]?
A: 2.3 µM

Q: What about the Activity (A-431 [11]) of the same compound?
A: 11.39%

Q: And the Activity (A-431 [12])?
A: Active

Q: What about the IC50 (SK-MEL-28) of the same compound?
A: 29 µM

Q: What about the inhibition [13] of the same compound?
A: Active

Q: What about the IC50 (PC-3) of the same compound?
A: 32 µM

Q: And the IC50 [14]?
A: 14.4 µM

Q: And the IC50 [15]?
A: 5.8 µM

Q: What about the Activity (A-431 [16]) of the same compound?
A: 45.05%

Q: And the Activity (A-431 [17])?
A: 16.51%

Q: What about the Activity (A-431 [18]) of the same compound?
A: 18.71%

Q: Which results are given for `O=C1C=CC(=O)c2c1ccc1c2c(=O)[nH]c2ccc(Cl)cc21`?
A: Activity (A-431 [1]): 31.53%; IC50 (MCF7): 1.2 µM; Activity (A-431 [2]): Active; IC50 (A549): 0.3 µM; Activity (A-431 [4]): 27.78%; inhibition [19]: inactive; IC50 (Hs 683): 0.2 µM; Activity (A-431 [20]): Active; Activity (A-431 [21]): Dose-dependent effect; IC50 [5]: 0.1 µM; Activity (A-431 [6]): 15.46%; Activity (A-431 [7]): 26.65%; IC50 (A-431 [8]): 3.13 µM; viability at 10 µM (A-431 [22]): 10%; growth inhibition (GI) (A-431 [23]): Tde; Activity (A-431 [24]): >60%; IC50 [10]: 5.72 µM; Ratio IC50 [25]: 18.5; Activity (A-431 [11]): 7.07%; Activity (A-431 [12]): Active; IC50 (SK-MEL-28): 0.3 µM; inhibition [13]: inactive; inhibition [26]: Active; IC50 (PC-3): 0.3 µM; IC50 [15]: 4.33 µM; Activity (A-431 [16]): 44.5%; Activity (A-431 [17]): 33.63%; Activity (A-431 [18]): 13.39%; Activity (A-431 [27]): Active
